From PMC4039129, “Specificity and Promiscuity at the Branch Point in Gentamicin Biosynthesis” (Chemistry & Biology, 2014) come the findings set out here.

The target of assay [1] is T1, GenQ (VM_GenQ) (Micromonospora echinospora, UniProt Q70KE0).
T1 construct: gene gacJ; full length with 38 extra N-terminal residues absent in original annotation; N-His6 tag, pET28a(+), E. coli BL21(DE3); contains FAD
Put plainly: LC-ESI-MS, […]'-dehydrogenation. It counts as biochemical. The conditions noted are these: 200 uM substrate, 16 uM enzyme, Tris-HCl pH 8.0, 30 °C overnight.

Assay [2] deals with T2, GenB1 (Micromonospora echinospora, UniProt Q70KD9).
T2 construct: gene gacK; N-His6-tagged, pET28a(+), E. coli BL21(DE3); contains PLP
T2 sequence (Q70KD9 entry or part of it): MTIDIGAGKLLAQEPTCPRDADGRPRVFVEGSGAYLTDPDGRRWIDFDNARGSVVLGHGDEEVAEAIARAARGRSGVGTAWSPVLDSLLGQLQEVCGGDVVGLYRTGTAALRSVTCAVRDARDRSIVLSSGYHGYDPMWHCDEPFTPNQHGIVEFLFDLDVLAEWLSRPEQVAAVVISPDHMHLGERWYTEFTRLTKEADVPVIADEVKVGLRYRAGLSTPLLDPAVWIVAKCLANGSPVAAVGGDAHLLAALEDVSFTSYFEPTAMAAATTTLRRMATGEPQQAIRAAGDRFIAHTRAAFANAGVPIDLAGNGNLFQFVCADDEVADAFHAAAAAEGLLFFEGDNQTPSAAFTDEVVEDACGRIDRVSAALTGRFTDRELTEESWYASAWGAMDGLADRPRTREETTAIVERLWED
Put plainly: LC-ESI-MS, GenQ-coupled transamination. It is filed as biochemical. The conditions noted are these: amino donor 2 mM; 6'-DOG made in situ from 200 uM G418 by 16 uM GenQ; 20 uM GenB1; Tris-HCl pH 8.0, 30 °C.

Assay [3] deals with T3, GenB2 (Micromonospora echinospora, UniProt Q70KE6).
T3 construct: gene gacE; N-His6-tagged, pET28a(+), E. coli BL21(DE3); contains PLP
T3 sequence (Q70KE6 entry or part of it): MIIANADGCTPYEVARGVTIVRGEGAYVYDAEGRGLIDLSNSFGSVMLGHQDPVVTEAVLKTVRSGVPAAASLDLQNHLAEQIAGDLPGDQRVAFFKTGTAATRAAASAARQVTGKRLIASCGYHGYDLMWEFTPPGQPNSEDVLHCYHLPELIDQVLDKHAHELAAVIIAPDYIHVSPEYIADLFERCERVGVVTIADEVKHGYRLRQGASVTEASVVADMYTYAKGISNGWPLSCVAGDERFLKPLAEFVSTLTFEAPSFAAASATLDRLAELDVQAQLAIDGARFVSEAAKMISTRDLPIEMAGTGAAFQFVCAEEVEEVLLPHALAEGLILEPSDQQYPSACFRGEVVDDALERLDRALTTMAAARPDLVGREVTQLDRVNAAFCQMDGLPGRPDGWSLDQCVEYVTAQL
Put plainly: LC-ESI-MS, […]'-epimerization. It is filed as biochemical. To be noted: 200 uM substrate, 20 uM enzyme, Tris-HCl pH 8.0, 30 °C overnight; reversible.

The target in assay [4] is T4, GenB3 (Micromonospora echinospora, UniProt Q2MG50).
T4 construct: N-His6-tagged, pET28a(+), E. coli BL21(DE3); contains PLP
T4 sequence (Q2MG50 entry or part of it): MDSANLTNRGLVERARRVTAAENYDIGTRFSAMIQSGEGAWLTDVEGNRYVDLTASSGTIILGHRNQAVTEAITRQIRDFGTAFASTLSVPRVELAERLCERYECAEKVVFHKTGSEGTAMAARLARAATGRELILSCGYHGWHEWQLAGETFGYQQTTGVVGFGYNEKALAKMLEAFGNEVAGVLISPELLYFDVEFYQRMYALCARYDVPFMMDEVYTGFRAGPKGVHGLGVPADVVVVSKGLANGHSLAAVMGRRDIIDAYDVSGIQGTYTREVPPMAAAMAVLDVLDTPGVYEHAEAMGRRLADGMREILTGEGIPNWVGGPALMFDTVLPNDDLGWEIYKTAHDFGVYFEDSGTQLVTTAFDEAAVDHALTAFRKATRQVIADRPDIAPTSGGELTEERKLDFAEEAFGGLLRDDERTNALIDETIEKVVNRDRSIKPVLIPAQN
The assay is described as follows: UV-visible absorption spectrum. It is filed as binding. The conditions noted are these: co-purified cofactor.

Assay [5] addresses T3, GenB2. The assay is described as follows: UV-visible absorption spectrum. It counts as binding. To be noted: co-purified cofactor.
In assay [6] the target is T5, GenB4 (Micromonospora echinospora, UniProt Q6QVT7).
T5 construct: gene gntH; N-His6-tagged, pET28a(+), E. coli BL21(DE3); contains PLP
T5 sequence (Q6QVT7 entry or part of it): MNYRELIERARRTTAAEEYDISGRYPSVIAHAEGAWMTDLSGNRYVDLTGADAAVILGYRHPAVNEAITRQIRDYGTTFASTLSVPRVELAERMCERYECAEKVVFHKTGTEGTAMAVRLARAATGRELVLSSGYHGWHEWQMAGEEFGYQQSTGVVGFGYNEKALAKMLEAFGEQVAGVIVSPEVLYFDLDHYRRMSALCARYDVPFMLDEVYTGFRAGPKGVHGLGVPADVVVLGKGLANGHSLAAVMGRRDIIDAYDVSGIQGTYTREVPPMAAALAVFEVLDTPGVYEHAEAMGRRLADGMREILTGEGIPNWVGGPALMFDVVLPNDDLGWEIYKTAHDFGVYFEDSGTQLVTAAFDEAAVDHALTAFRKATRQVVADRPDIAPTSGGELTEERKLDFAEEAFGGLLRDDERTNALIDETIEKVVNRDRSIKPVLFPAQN
The assay is described as follows: UV-visible absorption spectrum. It is filed as binding. The conditions noted are these: co-purified cofactor.

Assay [7] has as its target T2, GenB1. Put plainly: UV-visible absorption spectrum. To be noted: co-purified cofactor. It is filed as binding.

T1 sequence (Q70KE0 entry or part of it): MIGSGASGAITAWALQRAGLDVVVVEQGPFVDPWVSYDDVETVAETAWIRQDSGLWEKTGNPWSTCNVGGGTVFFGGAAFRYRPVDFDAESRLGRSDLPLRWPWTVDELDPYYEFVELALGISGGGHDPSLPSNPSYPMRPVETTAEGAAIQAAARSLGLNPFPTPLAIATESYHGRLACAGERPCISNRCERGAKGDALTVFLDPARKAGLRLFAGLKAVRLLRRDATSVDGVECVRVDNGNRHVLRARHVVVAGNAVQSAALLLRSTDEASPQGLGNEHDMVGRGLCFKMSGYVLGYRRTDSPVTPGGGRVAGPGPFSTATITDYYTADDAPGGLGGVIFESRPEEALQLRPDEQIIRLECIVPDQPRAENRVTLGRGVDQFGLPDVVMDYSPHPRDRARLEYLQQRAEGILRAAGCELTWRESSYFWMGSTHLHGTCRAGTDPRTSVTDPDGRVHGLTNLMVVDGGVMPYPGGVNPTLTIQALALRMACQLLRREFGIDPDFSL

On to `CN[C@@H]1[C@@H](O)[C@@H](O[C@@H]2[C@@H](O)[C@H](O[C@H]3O[C@H](CO)[C@@H](O)[C@H](O)[C@H]3N)[C@@H](N)C[C@H]2N)OC[C@]1(C)O` (stereo in doubt) [gentamicin X2], for which the “LC-ESI-MS, 6'-dehydrogenation” value in assay [1] is given as “GenQ also showed activity with X2 as the substrate”.
`CSCC[C@H](N)C(=O)O` [L-methionine]: the “LC-ESI-MS, GenQ-coupled transamination” value in assay [2] is on record as “conversion of G418 to JI-20B, with L-methionine as the most effective amino donor”.
For `CN[C@@H]1[C@@H](O)[C@@H](O[C@@H]2[C@@H](O)[C@H](O[C@H]3O[C@H]([C@@H](C)N)CC[C@H]3N)[C@@H](N)C[C@H]2N)OC[C@]1(C)O` [gentamicin C2], the “LC-ESI-MS, 6'-epimerization” value in assay [3] is given as “GenB2 did catalyze the epimerization of C2”.
In the case of `CN[C@@H]1[C@@H](O)[C@@H](O[C@@H]2[C@@H](O)[C@H](O[C@H]3O[C@H]([C@H](C)N)CC[C@H]3N)[C@@H](N)C[C@H]2N)OC[C@]1(C)O` [gentamicin C2a], the “LC-ESI-MS, 6'-epimerization” value in assay [3] is given as “when C2a was used as the substrate the reverse reaction was also detected”.
For `Cc1ncc(COP(=O)(O)O)c(C=O)c1O` [pyridoxal-5′-phosphate], the UV-visible absorption spectrum result in assay [4], in assay [5], in assay [6] and in assay [7] was “UV-visible absorption spectra typical of aminotransferases containing bound pyridoxal-5′-phosphate cofactor” throughout.
